# Measured values as given in article PMC10342533, “Novel Tetrazole Derivatives Targeting Tubulin Endowed with Antiproliferative Activity against Glioblastoma Cells” (International Journal of Molecular Sciences, 2023).
# Legend:
# [1] = Aqueous solubility, shake-flask method, phosphate buffer pH 7.4; type: physicochemical; details: thermodynamic from solid, phosphate buffer pH 7.4, shake-flask, mean ± SD of three experiments
# Protocol: The aqueous solubility of tetrazole derivatives was determined by the shaking flask methodology in phosphate buffer at pH 7.4, microfiltration, and quantification of the saturated solutions via UV spectroscopy. […] The introduction of polar groups on the 3-indole position was favorable since the most soluble compounds were the oximes 16–19 (38–53 µg/mL), followed by the carbaldehyde series 12–15 (33–45 µg/mL), and the carbonitrile derivatives (25–40 µg/mL), whereas the unsubstituted indoles 8–11 were the least soluble series (19–35 µg/mL).
# The aqueous solubility of the compounds was determined using the saturation shake-flask method. First, calibration lines at the maximum wavelength of absorbance were determined for each compound. Then, 5 mg of each compound was suspended in 500 µL of pH 7.4 buffer, and the resulting mixture was shaken for 72 h at room temperature and filtrated over a […] filter to remove the insoluble fraction. The concentration of the compound in the supernatant (saturated solution) was determined by measuring UV absorbance at the maximum wavelength of absorbance and interpolation in the calibration line. A Helios Alfa Spectrophotometer was used for the UV measurements. The aqueous solubility values are given as the average of three independent experiments.
# [2] = system: HeLa (cervix epithelioid carcinoma); assay: Cell growth inhibition, MTT assay, HeLa; type: cell-based; details: Homo sapiens
# Protocol: (§1) The ability of the synthesized compounds to inhibit the cell proliferation of human cancer cell lines was assayed by measuring cell viability through the use of the MTT method 72 h after treatment. For this purpose, representative cell lines of the most frequent kinds of cancer were selected, including the following: HeLa (cervix epithelioid carcinoma), MCF7 (breast adenocarcinoma), U87 MG (glioblastoma), T98G (temozolomide resistant glioblastoma), HepG2 (hepatocellular carcinoma), HCT8 (colorectal carcinoma), and HT-29 (colon adenocarcinoma).
# (§2) The cell lines were obtained from ATTC (Manassas, VA, USA). […] The cells were periodically tested for Mycoplasma infection by using a MycoAlert kit (Lonza, Norwest, Australia), and only Mycoplasma-free cells were used in the experiments.
# (§3) Then, every compound was added (10 µL/well) to a final concentration of 10 µM. Untreated cells were used as negative controls. The antiproliferative activity of compounds was measured 72 h after drug exposure through the MTT assay. […] For this purpose, compounds were used at different concentrations, ranging from 10^−10 to 10^−2 M. Measurements were performed in triplicate, and each experiment was repeated three times. The IC50 values were determined using Origin software (version 9.6, OriginLab, Washington, DC, USA).
# [3] = system: MCF7 (breast adenocarcinoma); assay: Cell growth inhibition, MTT assay, MCF7; type: cell-based; details: Homo sapiens
# Protocol: as §1, §2, §3
# [4] = system: U87 MG (glioblastoma); assay: Cell growth inhibition, MTT assay, U87 MG; type: cell-based; details: Homo sapiens, U-87 MG
# Protocol: as §1, §2, §3
# [5] = system: HepG2 (hepatocellular carcinoma); assay: Cell growth inhibition, MTT assay, HepG2; type: cell-based; details: Homo sapiens
# Protocol: as §1, §2, §3
# [6] = system: HCT8 (colorectal carcinoma); assay: Cell growth inhibition, MTT assay, HCT8; type: cell-based; details: Homo sapiens
# Protocol: as §1, §2, §3
# [7] = system: HT-29 (colon adenocarcinoma); assay: Cell growth inhibition, MTT assay, HT-29, without or with verapamil; type: cell-based, human
# Protocol: as §1
# Multidrug resistance (MDR) proteins, especially P-glycoprotein (P-gp), are often involved in resistance mechanisms affecting tubulin-binding drugs that are frequently related to the failure of cancer therapies. […] These pumps are also part of the blood–brain barrier.
# as §2, §3
# [8] = system: T98G (temozolomide resistant glioblastoma); assay: Cell growth inhibition, MTT assay, T98G; type: cell-based; details: Homo sapiens
# Protocol: as §1, §2, §3
# [9] = system: HEK-293 (embryonic kidney); assay: Cell growth inhibition, MTT assay, non-tumor HEK-293; type: cell-based; details: Homo sapiens
# Protocol: The ability of the synthesized compounds to inhibit the cell proliferation of human cancer cell lines was assayed by measuring cell viability through the use of the MTT method 72 h after treatment. For this purpose, representative cell lines of the most frequent kinds of cancer were selected, including the following: HeLa (cervix epithelioid carcinoma), MCF7 (breast adenocarcinoma), U87 MG (glioblastoma), T98G (temozolomide resistant glioblastoma), HepG2 (hepatocellular carcinoma), HCT8 (colorectal carcinoma), and HT-29 (colon adenocarcinoma). […] The compounds were also tested against the non-tumor HEK-293 cells to study their selectivity toward cancer cells. […] The cell lines were obtained from ATTC (Manassas, VA, USA). […] The cells were periodically tested for Mycoplasma infection by using a MycoAlert kit (Lonza, Norwest, Australia), and only Mycoplasma-free cells were used in the experiments. […] Louis, MO, USA), which was dissolved in PBS at 5 mg/mL in accordance with the manufacturer's instructions. […] Untreated cells were used as negative controls. The antiproliferative activity of compounds was measured 72 h after drug exposure through the MTT assay. […] For this purpose, compounds were used at different concentrations, ranging from 10^-10 to 10^-2 M. Measurements were performed in triplicate, and each experiment was repeated three times. The IC50 values were determined using Origin software (version 9.6, OriginLab, Washington, DC, USA).
# [10] = molecular target: T1, microtubular protein isolated from calf brains (bovine brain tubulin) (Bos taurus, UniProt P81947+Q6B856); assay: Tubulin polymerization inhibition (TPI); type: biochemical; details: in vitro tubulin polymerization, mean ± SD
# T1 construct: from tissue; host or cells: calf (bovine) brain
# T1 sequence (Q6B856 whole entry): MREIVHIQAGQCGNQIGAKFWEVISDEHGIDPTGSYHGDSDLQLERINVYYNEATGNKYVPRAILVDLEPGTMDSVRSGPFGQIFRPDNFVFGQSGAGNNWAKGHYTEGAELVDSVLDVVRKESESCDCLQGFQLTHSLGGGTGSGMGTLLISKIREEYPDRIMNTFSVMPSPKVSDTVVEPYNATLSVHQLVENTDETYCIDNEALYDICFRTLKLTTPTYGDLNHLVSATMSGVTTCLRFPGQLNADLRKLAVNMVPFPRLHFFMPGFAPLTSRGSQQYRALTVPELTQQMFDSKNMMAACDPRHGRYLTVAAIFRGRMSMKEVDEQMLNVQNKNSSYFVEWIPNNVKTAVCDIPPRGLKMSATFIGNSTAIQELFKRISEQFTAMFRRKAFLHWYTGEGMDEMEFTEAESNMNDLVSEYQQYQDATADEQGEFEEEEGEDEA
# T1 sequence (P81947 whole entry): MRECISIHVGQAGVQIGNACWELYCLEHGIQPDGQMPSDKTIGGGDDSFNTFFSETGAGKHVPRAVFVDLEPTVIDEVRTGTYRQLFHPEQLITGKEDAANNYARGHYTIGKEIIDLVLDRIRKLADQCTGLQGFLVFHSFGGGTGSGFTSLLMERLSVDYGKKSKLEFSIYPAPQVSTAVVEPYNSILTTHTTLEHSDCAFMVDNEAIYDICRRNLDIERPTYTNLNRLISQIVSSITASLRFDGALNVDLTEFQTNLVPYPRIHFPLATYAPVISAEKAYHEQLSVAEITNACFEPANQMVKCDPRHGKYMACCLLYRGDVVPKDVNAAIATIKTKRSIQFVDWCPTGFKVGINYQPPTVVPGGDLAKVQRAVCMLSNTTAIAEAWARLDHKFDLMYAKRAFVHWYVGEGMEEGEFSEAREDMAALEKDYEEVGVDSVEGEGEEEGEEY
# Protocol: We evaluated the capacity of the new synthesized compounds to inhibit the polymerization of microtubular protein isolated from calf brains. The assays were performed by taking absorbance measurements to quantify the amount of polymer mass formed in the presence (or absence; negative controls) of the compounds.
# Bovine brain tubulin was isolated as previously described by following a modified version of the Shelanski method. The protein was stored at −80 °C, and its concentration was determined by employing the Bradford method before each use. […] Tubulin polymerization, caused when heating the samples, was accompanied by an increase in the absorbance (at 450 nm) of the sample that was monitored by using a Helios α spectrophotometer. […] Measurements were performed in triplicate in two independent experiments using microtubular proteins from different preparations.
# [11] = HCT-8, 72 h after drug exposure
# [12] = Homo sapiens, HT-29, 72 h after drug exposure
# [13] = Homo sapiens, HT-29, mean ± SD, Table S1
# [14] = mean ± SD, Table S1, in the presence of verapamil (10 µM)
# [15] = HEK293, 72 h, non-tumorigenic cell line
Structure (SMILES),solubility at 72 h [1] [µg/mL],IC50 ([2]; 72 h after drug exposure) [nM],"IC50 ([2]; mean ± SD, Table S1) [nM]",IC50 ([3]; 72 h after drug exposure) [nM],"IC50 ([3]; mean ± SD, Table S1) [nM]","IC50 ([4]; mean ± SD, Table S1) [nM]","IC50 ([5]; mean ± SD, Table S1) [nM]","IC50 [6, 11] [nM]","IC50 ([6]; HCT-8, mean ± SD, Table S1) [nM]","IC50 [7, 12] [nM]","IC50 [7, 13] [nM]","IC50 [7, 14] [nM]",IC50 ([4]; 72 h after drug exposure) [nM],"IC50 ([8]; 72 h, 72 h after drug exposure) [nM]","IC50 ([8]; mean ± SD, Table S1) [nM]",IC50 ([5]; 72 h after drug exposure) [nM],"IC50 [9, 15] [nM]",IC50 [10] [nM],further results
"COc1ccc(S(=O)(=O)Nc2cccnc2Nc2ccc(O)cc2)cc1 [ABT-751, reference compound]",40 ± 0.3,388,388 ± 3.9,180,180 ± 2.8,375 ± 5.4,327.1 ± 1.1,209,209.1 ± 2,213,213.5 ± 2.1,250 ± 2.9,,,,,,,
"COc1ccc(/C=C\c2cc(OC)c(OC)c(OC)c2)cc1O [CA-4, combretastatin A4, reference compound]",1.1 ± 0.1,2,,1,1.4 ± 0.1,10.1 ± 0.1,13.4 ± 0.2,220,220.4 ± 2,305,305.4 ± 2.5,327.5 ± 2.2,10,17,17.1 ± 0.2,13,721,,
"Cn1ccc2cc(-n3nnnc3-c3cc(Cl)nc(Cl)c3)ccc21 [Compound 8, 5-(5-(2,6-dichloropyridin-4-yl)-1H-tetrazol-1-yl)-1-methyl-1H-indole]",19.3 ± 0.1,45,45.1 ± 0.3,43,43.2 ± 0.4,32.4 ± 0.2,49.1 ± 0.5,49,49.4 ± 0.3,,52.3 ± 0.4,52.4 ± 0.2,32,41,,49,4720,2800 ± 100,
"COc1cc(-c2nnnn2-c2ccc3c(ccn3C)c2)cc(Cl)n1 [Compound 9, 5-(5-(2-chloro-6-methoxypyridin-4-yl)-1H-tetrazol-1-yl)-1-methyl-1H-indole]",35.4 ± 0.2,72,72.5 ± 0.4,69,69.3 ± 0.5,48.1 ± 0.4,70.5 ± 0.5,75,75.4 ± 0.6,81,81.1 ± 0.5,80.2 ± 0.6,48,54,54.4 ± 0.5,70,5200,3100 ± 200,
"Cn1cc(C=NO)c2cc(-n3nnnc3-c3cc(Cl)nc(Cl)c3)ccc21 [Compound 16, 5-(5-(2,6-dichloropyridin-4-yl)-1H-tetrazol-1-yl)-1-methyl-1H-indole-3-carbaldehyde oxime]",38.2 ± 0.4,207,207.1 ± 2,210,210.1 ± 1.9,131.3 ± 1.1,220 ± 2.3,219,219.1 ± 1.5,211,211.1 ± 2,,131,127,127.3 ± 0.9,220,7010,3700 ± 200,
"COc1cc(-c2nnnn2-c2ccc3c(c2)c(C=NO)cn3C)cc(Cl)n1 [Compound 17, 5-(5-(2-chloro-6-methoxypyridin-4-yl)-1H-tetrazol-1-yl)-1-methyl-1H-indole-3-carbaldehyde oxime]",53 ± 0.3,220,220.2 ± 1.9,215,,155.2 ± 1.3,,227,,238,,230 ± 2.5,155,181,181.4 ± 1.5,229,7250,3800 ± 100,
"Cn1nnc2c(C(N)=O)ncn2c1=O [TMZ, temozolomide, reference compound]",,> 10000,,> 10000,,,,> 10000,,,> 10,,,,,> 10000,> 10000,,"IC50 ([2]; heading: IC50 HeLa, mean ± SD, Table S1): > 10000 nM; IC50 ([3]; heading: IC50 MCF7, mean ± SD, Table S1): > 10000 nM; IC50 ([4]; 72 h, 72 h after drug exposure): > 100000 nM; IC50 ([5]; heading: IC50 HepG2, mean ± SD, Table S1): > 10000 nM; IC50 ([6]; HCT-8, heading: IC50 HCT8, mean ± SD, Table S1): > 10000 nM; IC50 ([9]; HEK293, heading: IC50 HEK-293, mean ± SD, Table S1, non-tumorigenic cell line): > 10000 nM"
